Results published in patent US11491120B2, “Pharmacological prophylactics against stress-induced affective disorders in females” (The Trustees of Columbia University in the City of New York, priority 2017, dated 2022).
“Also recorded” adds a separate entry of the source.

Assays:
mice = conditions: sub-anesthetic doses; cited from earlier work
humans = conditions: sub-anesthetic doses, cited from earlier work
male mice = conditions: as previously shown; cited from earlier work
female 129S6/SvEv mice = assay: Forced swim test (FST), immobility time, after stress; conditions: for p, Sal vs. drug, Fisher's PLSD: Immobility Time (min 1-6), Forced Swim Test Day 2 / p, Sal vs. drug, Fisher's PLSD: Immobility Time Average (min 3-6), Forced Swim Test Day 2: 3 day prophylactic drug
[1] = 2.5 mg/kg, 1 week prophylactic drug
[2] = 10 mg/kg, 1 week prophylactic drug
[3] = 10 mg/kg, 1 week prophylactic drug, learned helplessness stress
[4] = 30 mg/kg, 1 week prophylactic drug
[5] = Forced Swim Test Day 1, Dunnett test Sal vs. drug (2.5), 1 week prophylactic drug
[6] = Forced Swim Test Day 1, Dunnett test Sal vs. drug (10), 1 week prophylactic drug
[7] = Forced Swim Test Day 1, Dunnett test Sal vs. drug (30), 1 week prophylactic drug

## CNC1(c2ccccc2Cl)CCCCC1=O (racemic) [(R,S)-ketamine, (RS)-2-(2-chlorophenyl)-2-(methylamino)cyclohexanone]
mice
  Antidepressant onset: 30 min
humans; humans
  Antidepressant onset: 2 h
humans
  Duration of antidepressant effect: up to 2 weeks
Male mice
  Prophylactically effective dose in males: 30 mg/kg
Female 129S6/SvEv mice; [1]
  p, Sal vs. drug, Dunnett test: Immobility Time (min 1), Forced Swim Test Day 2: 0.5849
  p, Sal vs. drug, Dunnett test: Immobility Time (min 1-6), Forced Swim Test Day 2: 0.8314
  p, Sal vs. drug, Dunnett test: Immobility Time (min 2), Forced Swim Test Day 2: 0.9770
  p, Sal vs. drug, Dunnett test: Immobility Time (min 4), Forced Swim Test Day 2: 0.9997
  p, Sal vs. drug, Dunnett test: Immobility Time (min 5), Forced Swim Test Day 2: 0.9999
  p, Sal vs. drug, Dunnett test: Immobility Time (min 6), Forced Swim Test Day 2: 0.9686
  p, Sal vs. drug, Dunnett test: Immobility Time Average (min 3-6), Forced Swim Test Day 2: 0.9990
Female 129S6/SvEv mice; 2.5 mg/kg
  p, Sal vs. drug, Fisher's PLSD: Immobility Time (min 1-6), Forced Swim Test Day 2: 0.1441
  p, Sal vs. drug, Fisher's PLSD: Immobility Time Average (min 3-6), Forced Swim Test Day 2: 0.3992
Female 129S6/SvEv mice; [2]
  * (significance), Sal vs. drug, Dunnett test: Immobility Time (min 1-6), Forced Swim Test Day 2: ** (** p<0.01)
  * (significance), Sal vs. drug, Dunnett test: Immobility Time (min 4), Forced Swim Test Day 2: * (* p<0.05)
  * (significance), Sal vs. drug, Dunnett test: Immobility Time (min 5), Forced Swim Test Day 2: * (* p<0.05)
  * (significance), Sal vs. drug, Dunnett test: Immobility Time Average (min 3-6), Forced Swim Test Day 2: ** (** p<0.01)
  p, Sal vs. drug, Dunnett test: Immobility Time (min 1), Forced Swim Test Day 2: 0.0825
  p, Sal vs. drug, Dunnett test: Immobility Time (min 1-6), Forced Swim Test Day 2: 0.0006
  p, Sal vs. drug, Dunnett test: Immobility Time (min 2), Forced Swim Test Day 2: 0.0675
  p, Sal vs. drug, Dunnett test: Immobility Time (min 4), Forced Swim Test Day 2: 0.0144
  p, Sal vs. drug, Dunnett test: Immobility Time (min 5), Forced Swim Test Day 2: 0.0149
  p, Sal vs. drug, Dunnett test: Immobility Time (min 6), Forced Swim Test Day 2: 0.3306
  p, Sal vs. drug, Dunnett test: Immobility Time Average (min 3-6), Forced Swim Test Day 2: 0.0062
Female 129S6/SvEv mice; [3]
  * (significance), Sal vs. drug, Fisher's PLSD: Immobility Time Average (min 3-6), Forced Swim Test Day 2: *** (*** p<0.0001)
  P, Sal vs. drug, Fisher's PLSD: Immobility Time Average (min 3-6), Forced Swim Test Day 2: <0.0001
Female 129S6/SvEv mice; 10 mg/kg
  p, Sal vs. drug, Fisher's PLSD: Immobility Time (min 1-6), Forced Swim Test Day 2: 0.1807
  p, Sal vs. drug, Fisher's PLSD: Immobility Time Average (min 3-6), Forced Swim Test Day 2: 0.4394
Female 129S6/SvEv mice; 10 mg/kg, injection one hour prior to FST Day 1, female mice
  Immobility on FST Day 2, first minute, vs saline: significantly less immobile compared to saline mice; also recorded: significantly less immobile than saline mice during the first minute
Female 129S6/SvEv mice; [4]
  p, Sal vs. drug, Dunnett test: Immobility Time (min 1), Forced Swim Test Day 2: 0.9167
  p, Sal vs. drug, Dunnett test: Immobility Time (min 1-6), Forced Swim Test Day 2: 0.1741
  p, Sal vs. drug, Dunnett test: Immobility Time (min 2), Forced Swim Test Day 2: 0.7390
  p, Sal vs. drug, Dunnett test: Immobility Time (min 4), Forced Swim Test Day 2: 0.4082
  p, Sal vs. drug, Dunnett test: Immobility Time (min 5), Forced Swim Test Day 2: 0.3770
  p, Sal vs. drug, Dunnett test: Immobility Time (min 6), Forced Swim Test Day 2: 0.8643
  p, Sal vs. drug, Dunnett test: Immobility Time Average (min 3-6), Forced Swim Test Day 2: 0.5537
Female 129S6/SvEv mice; 30 mg/kg
  p, Sal vs. drug, Fisher's PLSD: Immobility Time (min 1-6), Forced Swim Test Day 2: 0.0750
  p, Sal vs. drug, Fisher's PLSD: Immobility Time Average (min 3-6), Forced Swim Test Day 2: 0.3050
Female 129S6/SvEv mice; [5]
  p, Immobility Time (min 1): 0.9806
  p, Immobility Time (min 1-6): 0.1415
  p, Immobility Time (min 3): 0.9989
  p, Immobility Time (min 4): 0.9991
  p, Immobility Time (min 5): 0.9999
  p, Immobility Time (min 6): 0.9999
  p, Immobility Time Average (min 3-6): 0.9994
Female 129S6/SvEv mice; [6]
  * (significance), Immobility Time (min 3): * (* p<0.05)
  p, Immobility Time (min 1): 0.9957
  p, Immobility Time (min 1-6): 0.2256
  p, Immobility Time (min 3): 0.0470
  p, Immobility Time (min 4): 0.3636
  p, Immobility Time (min 5): 0.2596
  p, Immobility Time (min 6): 0.1488
  p, Immobility Time Average (min 3-6): 0.0733
Female 129S6/SvEv mice; [7]
  p, Immobility Time (min 1): 0.9955
  p, Immobility Time (min 1-6): 0.3435
  p, Immobility Time (min 3): 0.1617
  p, Immobility Time (min 4): 0.9555
  p, Immobility Time (min 5): 0.8239
  p, Immobility Time (min 6): 0.8254
  p, Immobility Time Average (min 3-6): 0.5081
